Some test systems named below: MOLT-4 leukemia; EKVX NSCLC; M19-MEL melanoma; SK-MEL-2 melanoma; SN12C renal; LXFL 529 NSCLC; HT29 colon; SF-268 CNS; HOP-92 NSCLC; BT-549 breast.
Common to all, as to test: growth of human tumour cells (NCI), 48 h

Where “and” joins values, the source holds several entries; their conditions need not be identical. Equal entries are not always repeated.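 1) Cells in 96-well plates. 2) Compound, 48 h, 5 concentrations. 3) Linear interpolation between surrounding doses. 4) Unreached endpoint = highest concentration. GI50 is the concentration that inhibits growth by half. TGI: concentration producing complete growth inhibition.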

Consider `Cc1cc([N+](=O)[O-])ccc1Nc1cccc(Cl)c1C`, for which the TGI is 33 µM in the experiment on MOLT-4 leukemia; 49.8 µM in the experiment with EKVX NSCLC; 30.6 µM with M19-MEL melanoma; 29 µM in the experiment on SK-MEL-2 melanoma; 32.1 µM in the experiment on SN12C renal; 28.3 µM in the experiment on LXFL 529 NSCLC. In addition, the TGI in the experiment with HT29 colon was 32 µM; in the experiment on SF-268 CNS, 35.8 µM.

For the compound `Cc1cc(CC(O)c2ccc(Cl)c(Cl)c2)nc(=O)[nH]1` (stereo unspecified), the TGI in the experiment with EKVX NSCLC was 96.7 µM; in the experiment with M19-MEL melanoma it was above 100 µM; in the experiment with SK-MEL-2 melanoma, above 100 µM; in the experiment on SN12C renal, above 100 µM; in the experiment on LXFL 529 NSCLC, 59.2 µM; with HT29 colon it was above 100 µM. Moreover, the TGI in the experiment with HOP-92 NSCLC is 49.5 µM; in the experiment on SF-268 CNS, above 100 µM.

Take `Cc1ccc(NC(=O)C(=O)C(C(=O)c2ccc3ccccc3c2)C2OC(=O)c3ccccc32)cc1C` (stereo unspecified): the TGI in the experiment with MOLT-4 leukemia was 25.9 µM; in the experiment on EKVX NSCLC, above 100 µM; in the experiment with M19-MEL melanoma, 20.6 µM; in the experiment with SK-MEL-2 melanoma, 36.3 µM; in the experiment with SN12C renal it was 44.8 µM; in the experiment with LXFL 529 NSCLC it was 22 µM. For the same compound, the TGI is above 100 µM in the experiment with HT29 colon, 40.6 µM in the experiment on HOP-92 NSCLC and 52.8 µM with SF-268 CNS.

Turning to `O=S1(=O)C[C@H](O)[C@H](O)CS1`, the TGI in the experiment with MOLT-4 leukemia, in the experiment on EKVX NSCLC, with M19-MEL melanoma, in the experiment on SN12C renal, with LXFL 529 NSCLC and with HT29 colon was above 100 µM throughout. The TGI in the experiment on HOP-92 NSCLC and in the experiment on SF-268 CNS was above 100 µM each time.

As for `Cc1nn(-c2ccccc2)c2nc(N3CCOCC3)nnc12`, the TGI with MOLT-4 leukemia, in the experiment on EKVX NSCLC, in the experiment on M19-MEL melanoma, in the experiment with SK-MEL-2 melanoma, in the experiment on SN12C renal and in the experiment with LXFL 529 NSCLC was above 100 µM each time. Further, the TGI in the experiment on HT29 colon and with SF-268 CNS was above 100 µM in each case.

`CCN(CC)CCCC(CNc1ccnc2cc(Cl)ccc12)c1ccc(Cl)cc1` (stereo unspecified): the GI50 with MOLT-4 leukemia is 1.56 µM and 1.24 µM; with EKVX NSCLC it was 2.11 µM and 1.67 µM; with SK-MEL-2 melanoma, 2.1 µM and 1.59 µM; in the experiment with SN12C renal it was 1.96 µM and 1.92 µM; in the experiment on BT-549 breast, 1.79 µM and 1.75 µM; in the experiment on HT29 colon it was 0.484 µM and 0.304 µM. Also, the GI50 is 1.44 µM and 1.16 µM with HOP-92 NSCLC; 1.56 µM and 1.71 µM in the experiment on SF-268 CNS. The TGI in the experiment on MOLT-4 leukemia is 4.91 µM and 4.22 µM; in the experiment on EKVX NSCLC, 6.03 µM and 4.11 µM; with SK-MEL-2 melanoma, 4.07 µM and 3.09 µM; in the experiment with SN12C renal, 4.78 µM and 4.3 µM; in the experiment with BT-549 breast, 3.79 µM and 3.38 µM; with HT29 colon it was 2.35 µM and 1.28 µM. Besides, the TGI is 3.12 µM and 2.78 µM in the experiment on HOP-92 NSCLC; 3.31 µM and 4.55 µM in the experiment on SF-268 CNS.

Turning to `O=C(/C=C/c1ccccc1O)c1ccccc1O`, the TGI with MOLT-4 leukemia, with EKVX NSCLC, in the experiment on M19-MEL melanoma, in the experiment with SK-MEL-2 melanoma, with SN12C renal and in the experiment on HT29 colon was above 100 µM in each case. Further, the TGI with HOP-92 NSCLC and with SF-268 CNS was above 100 µM each time.

Consider `N#CC(=C1C=CC(=NO)C=C1)c1ccccc1`, for which the GI50 is 3.04 µM in the experiment with MOLT-4 leukemia; 5.31 µM in the experiment with EKVX NSCLC; 2.14 µM in the experiment on SK-MEL-2 melanoma; 2.39 µM in the experiment with SN12C renal; 2.42 µM with BT-549 breast; 2.16 µM in the experiment on HT29 colon. Further, the GI50 with HOP-92 NSCLC was 2.49 µM; in the experiment with SF-268 CNS, 1.37 µM. Besides, the TGI worked out at 18.4 µM in the experiment with MOLT-4 leukemia; 21.4 µM with EKVX NSCLC; 6.77 µM with SK-MEL-2 melanoma; 8.41 µM in the experiment with SN12C renal; 11.6 µM with BT-549 breast; 6.69 µM with HT29 colon. The TGI in the experiment with HOP-92 NSCLC worked out at 9.46 µM; in the experiment on SF-268 CNS, 6.06 µM.

`CCN(CC)c1ccc2c(c1)OC(N)=C(C#N)C2c1cc(OC)c2c(c1)OCO2` (stereo unspecified): the GI50 is 0.0497 µM in the experiment with MOLT-4 leukemia; 0.0767 µM with EKVX NSCLC; 0.0476 µM in the experiment on SK-MEL-2 melanoma; 0.0537 µM in the experiment with SN12C renal; 0.0661 µM with BT-549 breast; 0.0317 µM in the experiment with HT29 colon. The GI50 was 0.107 µM in the experiment with HOP-92 NSCLC and 0.06 µM with SF-268 CNS. Besides, the TGI in the experiment with MOLT-4 leukemia was 3.55 µM; in the experiment with EKVX NSCLC, above 100 µM; with SK-MEL-2 melanoma, 13.8 µM; in the experiment on SN12C renal, 6.09 µM; in the experiment on BT-549 breast, 0.455 µM; in the experiment with HT29 colon, 0.309 µM. For the same compound, the results for the TGI in the experiment with HOP-92 NSCLC and with SF-268 CNS were 3.58 µM and 3.03 µM, respectively.

On to `COc1ccc2c3c([nH]c2c1[N+](=O)[O-])C(C)=NCC3`, for which the TGI in the experiment with MOLT-4 leukemia, in the experiment with EKVX NSCLC, in the experiment on SK-MEL-2 melanoma, with SN12C renal, in the experiment with LXFL 529 NSCLC and with HT29 colon was above 100 µM in each case. For the same compound, in the experiment with SF-268 CNS, the TGI is 64.7 µM.

As for `Cc1cc(I)cc(CN(C)CCCN2CCCCCCC2)c1O`, the GI50 in the experiment with MOLT-4 leukemia was 3.7 µM; in the experiment with EKVX NSCLC, 16 µM; in the experiment on SK-MEL-2 melanoma it was 21.8 µM; with SN12C renal it was 18 µM; in the experiment on BT-549 breast, 13.1 µM; in the experiment with HT29 colon, 6.26 µM. Further, the GI50 in the experiment on HOP-92 NSCLC is 11.6 µM; in the experiment on SF-268 CNS, 14.9 µM. Besides, the TGI in the experiment with MOLT-4 leukemia came out at 19.9 µM; with EKVX NSCLC, 37.6 µM; in the experiment with SK-MEL-2 melanoma, 41.7 µM; in the experiment on SN12C renal, 41.1 µM; in the experiment on BT-549 breast, 26.7 µM; in the experiment with HT29 colon it was 21.1 µM. Further, the results for the TGI with HOP-92 NSCLC and with SF-268 CNS were 29.8 µM and 31.3 µM, respectively.

On to `O=C(Cc1ccc(/C=C/C(=O)c2ncc[nH]2)cc1)Nc1cc(F)c(F)c(F)c1`, for which the GI50 in the experiment with MOLT-4 leukemia is 4.81 µM; with EKVX NSCLC, 8.45 µM; in the experiment with SK-MEL-2 melanoma it was 5.15 µM; in the experiment on SN12C renal it was 4.27 µM; in the experiment with BT-549 breast, 3.37 µM; with HT29 colon, 0.861 µM. The figures for the GI50 in the experiment with HOP-92 NSCLC and with SF-268 CNS were 3.53 µM and 5.26 µM, respectively. For the same compound, the TGI in the experiment with MOLT-4 leukemia was 16.1 µM; in the experiment on EKVX NSCLC, above 25 µM; in the experiment with SK-MEL-2 melanoma it was 15.7 µM; in the experiment with SN12C renal, 11.1 µM; with BT-549 breast, 6.74 µM; in the experiment with HT29 colon it was 4.17 µM. The results for the TGI in the experiment with HOP-92 NSCLC and in the experiment on SF-268 CNS were 8 µM and 20.1 µM, respectively.

(Values after PubChem BioAssay (NCI).)
